Format: in vitro ADME, human
Procedure: To determine if microfabricated microneedles could be used to enhance transdermal drug delivery, arrays of microneedles were made using a deep plasma etching technique. Their ability to penetrate human skin without breaking was tested and the resulting changes in transdermal transport were measured.
Arrays of microneedles were fabricated having extremely sharp tips (radius of curvature less than 1 μm), and are approximately 150 μm long. Because the skin surface is not flat due to dermatoglyphics and hair, the full length of these microneedles will not penetrate the skin. All experiments were performed at room temperature (23±2° C.).
To quantitatively assess the ability of microneedles to increase transdermal transport, calcein permeability of human epidermis with and without inserted microneedle arrays was measured. Calcein crosses skin very poorly under normal circumstances and therefore represents an especially difficult compound to deliver.
Insertion of microneedles into skin was capable of dramatically increasing permeability to calcein. When microneedles were inserted and left embedded in the skin, calcein permeability was increased by more than 1000-fold. Insertion of microneedles for 10 s, followed by their removal, yielded an almost 10,000-fold increase. […]

- Passive permeability across unaltered skin: very low
- Increase in skin permeability to calcein (human): about 25,000 fold
Compound: O=C(O)CN(CC(=O)O)Cc1cc2c(cc1O)Oc1cc(O)c(CN(CC(=O)O)CC(=O)O)cc1C21OC(=O)c2ccccc21 [Calcein]
